Test results: US20140309244A1, “NOVEL MICROBIOCIDES” (SYNGENTA PARTICIPATIONS AG, priority 2010, published 2014)

Tests used:
[1] = tested on: Puccinia recondita f. sp. tritici; assay: Puccinia recondita f. sp. tritici / wheat / leaf disc preventative (brown rust); assay type: in vivo; conditions: foliar, wheat cv Kanzler leaf segments, inoculated 1 day after application, assessed 7-9 days after application, read-out: control of Puccinia recondita f. sp. tritici (percent disease control compared to untreated)
Experimental: Puccinia recondita f. sp. tritici/Wheat/Leaf Disc Preventative (Brown Rust) Wheat leaf segments cultivated variety (cv) Kanzler were placed on agar in 24-well plates and sprayed with formulated test compound diluted in water at an application rate of 200 ppm. The leaf disks were inoculated with a spore suspension of the fungus 1 day after application. The inoculated leaf segments were incubated at 19° C. and 75% relative humidity under a light regime of 12/12 h (light/dark) in a climate cabinet and the activity of a compound was assessed as percent disease control compared to untreated when an appropriate level of disease damage appears in untreated check leaf segments (7-9 days after application). […].103

[2] = tested on: Puccinia recondita f. sp. tritici; assay: Puccinia recondita f. sp. tritici / wheat / leaf disc curative (brown rust); assay type: in vivo; conditions: foliar, wheat cv Kanzler leaf segments, applied 1 day after inoculation, assessed 6-8 days after application, read-out: control of Puccinia recondita f. sp. tritici (percent disease control compared to untreated)
Experimental: Puccinia recondita f. sp. tritici/Wheat/Leaf Disc Curative (Brown Rust): Wheat leaf segments cv Kanzler were placed on agar in 24-well plates. The leaf segments were inoculated with a spore suspension of the fungus. The plates were stored in darkness at 19° C. and 75% relative humidity. The formulated test compound diluted in water was applied at an application rate of 200 ppm 1 day after inoculation.

[3] = tested on: Phaeosphaeria nodorum (Septoria nodorum); assay: Phaeosphaeria nodorum (Septoria nodorum) / wheat / leaf disc preventative (glume blotch); assay type: in vivo; conditions: Parastagonospora nodorum, foliar, wheat cv Kanzler leaf segments, inoculated 2 days after application, assessed 5-7 days after application, read-out: control of Phaeosphaeria nodorum (percent disease control compared to untreated)
Pyrenophora teres = Pyrenophora teres / barley / leaf disc preventative (net blotch); assay type: in vivo; conditions: foliar, barley cv Hasso leaf segments, inoculated two days after application, assessed 5-7 days after application, read-out: control of Pyrenophora teres (disease control compared to untreated)
[4] = tested on: Botryotinia fuckeliana (Botrytis cinerea); assay: Botryotinia fuckeliana (Botrytis cinerea) / liquid culture (gray mould); assay type: cell-based; conditions: Vogels broth, 96-well plate, 24° C., 3-4 days after application, read-out: control of Botryotinia fuckeliana (inhibition of growth, photometric)
[5] = tested on: Glomerella lagenarium (Colletotrichum lagenarium); assay: Glomerella lagenarium (Colletotrichum lagenarium) / liquid culture (anthracnose); assay type: cell-based; conditions: Colletotrichum orbiculare, PDB potato dextrose broth, 96-well plate, 24° C., 3-4 days after application, read-out: control of Glomerella lagenarium (inhibition of growth, photometric)
[6] = tested on: Mycosphaerella arachidis (Cercospora arachidicola); assay: Mycosphaerella arachidis (Cercospora arachidicola) / liquid culture (early leaf spot); assay type: cell-based; conditions: PDB potato dextrose broth, 96-well plate, 24° C., 4-5 days after application, read-out: control of Mycosphaerella arachidis (inhibition of growth, photometric)
[7] = tested on: Mycosphaerella graminicola (Septoria tritici); assay: Mycosphaerella graminicola (Septoria tritici) / liquid culture (Septoria blotch); assay type: cell-based; conditions: Zymoseptoria tritici, PDB potato dextrose broth, 96-well plate, 24° C., 4-5 days after application, read-out: control of Mycosphaerella graminicola (inhibition of growth, photometric)
Gaeumannomyces graminis = Gaeumannomyces graminis / liquid culture (take-all of cereals); assay type: cell-based; conditions: liquid culture of mycelial fragments, PDB potato dextrose broth, 96-well plate, 24° C., 4-5 days after application, read-out: control of Gaeumannomyces graminis (inhibition of growth, photometric)
[8] = tested on: Thanatephorus cucumeris (Rhizoctonia solani); assay: Thanatephorus cucumeris (Rhizoctonia solani) / liquid culture (foot rot, damping-off); assay type: cell-based; conditions: liquid culture of mycelia fragments, PDB potato dextrose broth, 96-well plate, 24° C., 3-4 days after application, read-out: control of Thanatephorus cucumeris (inhibition of growth, photometric)
Experimental: Thanatephorus cucumeris (Rhizoctonia solani)/Liquid Culture (Foot Rot, Damping-Off): Mycelia fragments of a newly grown liquid culture of the fungus are directly mixed into nutrient broth (PDB potato dextrose broth). After placing a DMSO solution of the test compounds into a 96-well microtiter plate at an application rate of 200 ppm, the nutrient broth containing the fungal material was added. The test plates were incubated at 24° C. and the inhibition of growth was determined photometrically 3-4 days after application.

[9] = tested on: Monographella nivalis (Microdochium nivale); assay: Monographella nivalis (Microdochium nivale) / liquid culture (foot rot cereals); assay type: cell-based; conditions: PDB potato dextrose broth, 96-well plate, 24° C., 4-5 days after application, read-out: control of Monographella nivalis (inhibition of growth, photometric)
How it was run: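 Cryostored conidia in potato dextrose broth added to test compound in DMSO at 200 ppm. Incubated at 24° C; growth inhibition read photometrically 4-5 days after application.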

[10] = tested on: Blumeria graminis f. sp. tritici (Erysiphe graminis f. sp. tritici); assay: Blumeria graminis f. sp. tritici (Erysiphe graminis f. sp. tritici) / wheat / leaf disc preventative (powdery mildew on wheat); assay type: in vivo; conditions: foliar, wheat cv. Kanzler leaf segments, inoculated 1 day after application, assessed 6-8 days after application, read-out: control of Blumeria graminis (percent disease control compared to untreated)
[11] = tested on: Magnaporthe grisea (Pyricularia oryzae); assay: whole plant or invertebrate; assay type: in vivo; conditions: foliar, read-out: control of Magnaporthe grisea (percent disease control compared to untreated)

CO/N=C(\C)c1cccc(CCCO/N=C2\CCCc3cc4ccccc4nc32)n1 [P.100]
≥ 80%: pest or weed control at 200 ppm [1] | pest or weed control at 200 ppm [2] | pest or weed control at 200 ppm [3] | pest or weed control at 200 ppm (Pyrenophora teres) | inhibition at 200 ppm [4] | inhibition at 200 ppm [5] | inhibition at 200 ppm [6] | inhibition at 200 ppm [7] | inhibition at 200 ppm (Gaeumannomyces graminis) | inhibition at 200 ppm [8] | inhibition at 200 ppm [9] | pest or weed control at 200 ppm [10] | pest or weed control at 200 ppm [11]

CO/N=C(\C)c1cccc(CCCO/N=C2\CCCc3cc4c(nc32)CCCC4)n1 [P.94]
≥ 80%: pest or weed control at 200 ppm [1] | pest or weed control at 200 ppm [2] | pest or weed control at 200 ppm [3] | pest or weed control at 200 ppm (Pyrenophora teres) | inhibition at 200 ppm [4] | inhibition at 200 ppm [5] | inhibition at 200 ppm [6] | inhibition at 200 ppm [7] | inhibition at 200 ppm (Gaeumannomyces graminis) | inhibition at 200 ppm [8] | inhibition at 200 ppm [9] | pest or weed control at 200 ppm [10] | pest or weed control at 200 ppm [11]
